This is an account of results in the supplement of paper PMC10307832.

Compound in experiment [1]: CC(C)CCN1c2nc(Nc3cc(F)c(O)c(F)c3)ncc2N(C)C(=O)C1C [BI-D1870] + O=C(CCCCCCC(=O)Nc1ccccc1)NO [Vorinostat] (partner 1 µM)
The experiment can be described thus: relative viability (nuclei count vs DMSO), 5 days (fraction); higher = more cells survive. The method, boiled down: (§1)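 Values are medians from duplicate plates. Each reflects relative viability, defined as the nuclei count of treated wells over that of vehicle wells. Lung cancer cell lines in 1536-well plates were pin-tool dosed one day after seeding with one drug alone or with a fixed anchor-drug dose plus five library-drug doses (not always all listed) in √10 steps, then fixed, stained and imaged at 4× after 5 days.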

Compound in experiment [2]: CC(C)CCN1c2nc(Nc3cc(F)c(O)c(F)c3)ncc2N(C)C(=O)C1C [BI-D1870] + NC(=O)Nc1cc(-c2cccc(F)c2)sc1C(=O)N[C@H]1CCCNC1 [AZD7762] (partner 0.2 µM)
The experiment is described as above. The essentials:
as §1

In the case of RERF-LC-KJ, the relative viability in experiment [1] (first compound 0.04 µM) came out at 0.66; in experiment [1] (first compound 0.1265 µM), 0.633; in experiment [1] (first compound 0.4 µM) it was 0.669; in experiment [1] (first compound 1.265 µM) it was 0.642; in experiment [1] (first compound 4 µM) it was 0.47; in experiment [2] (first compound 0.04 µM) it was 0.944. In addition, the relative viability in experiment [2] (first compound 0.1265 µM) was 0.896; in experiment [2] (first compound 0.4 µM) it was 0.946; in experiment [2] (first compound 1.265 µM) it was 1.08; in experiment [2] (first compound 4 µM), 0.914.

Consider SW 900, for which the relative viability in experiment [1] (first compound 0.04 µM) was determined as 0.504; in experiment [1] (first compound 0.1265 µM), 0.537; in experiment [1] (first compound 0.4 µM), 0.582; in experiment [1] (first compound 1.265 µM), 0.725; in experiment [1] (first compound 4 µM), 0.466; in experiment [2] (first compound 0.04 µM) it was 0.81. For the same cell line, the relative viability in experiment [2] (first compound 0.1265 µM) was determined as 0.589; in experiment [2] (first compound 0.4 µM), 0.526; in experiment [2] (first compound 1.265 µM), 0.661; in experiment [2] (first compound 4 µM), 0.594.
